Laboratory results from patent US11684582B2, “Method for stabilizing humidity-sensitive pharmaceutical substance and stabilized preparation thereof” (Delta-Fly Pharma, Inc., priority 2021, dated 2023).

Columns and labels:
cancer-bearing nude rats = conditions: oral, versus TS-1; cited from earlier work
[1] = stability test in acceleration conditions (25° C./humidity 60%): appearance, purity and analogs by HPLC, water content, disintegration time, microbial content; format: physicochemical
[2] = tested on: patients having a solid cancer; conditions: phase-I trial, patients with solid cancer; cited from earlier work
[3] = bulk drug, 25° C./60% RH, after 3 months

CCOCn1cc(F)c(=O)n(C(=O)c2cccc(C(=O)Oc3cc(OC(=O)c4cc(OC(=O)CC)nc(OC(=O)CC)c4)c(Cl)cn3)c2)c1=O [DFP-11207]
therapeutic effects (cancer-bearing nude rats): more excellent than TS-1
stable period (specifications satisfied) ([1]; acceleration conditions (25° C./humidity 60%)): ≤ 3 months
Analog (% area): Analog-1 (RRT 0.42) [1, 3]: 0.18%
Analog (% area): Impurity 1 (RRT 0.49) [1, 3]: 0.73%
Analog (% area): Impurity 2 (RRT 0.74) [1, 3]: 2.13%
Analog (% area): Impurity 3 (RRT 0.83) [1, 3]: 0.49%
Analog (% area): Impurity 4 (RRT 1.13) [1, 3]: 0.86%
Analog (% area): Total impurities [1, 3]: 5.8%
Analog (% area): relative elution time 0.30 [1, 3]: 0.27%
Analog (% area): relative elution time 0.80 [1, 3]: 0.21%
Analog (% area): relative elution time 0.88 [1, 3]: 0.07%
Analog (% area): relative elution time 0.89 [1, 3]: 0.05%
Analog (% area): relative elution time 0.90 [1, 3]: 0.10%
Analog (% area): relative elution time 0.92 [1, 3]: 0.15%
Analog (% area): relative elution time 0.93 [1, 3]: 0.13%
Analog (% area): relative elution time 0.94 [1, 3]: 0.05%
Analog (% area): relative elution time 1.03 [1, 3]: 0.22%
Analog (% area): relative elution time 1.29 [1, 3]: 0.06%
Analog (% area): relative elution time 1.30 [1, 3]: 0.09%
Appearance [1, 3]: Grayish-white
Purity (% area) [1, 3]: 94.0%
Water content [1, 3]: 0.2%
Passing status: Appearance ([1]; bulk drug, 25° C./60% RH, after 3 months, specification Grayish-white to pale yellow): Passed
Passing status: Water content ([1]; bulk drug, 25° C./60% RH, after 3 months, specification ≤0.5%): Passed
Passing status: Analog, individual impurities ([1]; bulk drug, 25° C./60% RH, after 3 months, specification ≤1.0%): Not
Passing status: Total impurities ([1]; bulk drug, 25° C./60% RH, after 3 months, specification ≤4.0%): Not
safety (serious gastrointestinal toxicity, reduced blood platelet count) [2]: none of serious gastrointestinal toxicity such as diarrhea and toxicity of reduced blood platelet count were observed
